The subject of data set [1] is HL60. In words: In vitro cytotoxic activity, 7-AAD flow cytometry, HL60. Format: cell-based. To be noted: Homo sapiens, HL-60, 24 h incubation, mean ± SD, triplicate. From the text:
(§1) The investigation focused on the assessment of the synthesized compounds’ toxicities, utilizing a panel of six diverse cell lines. The selection of cells was based on the specific features of their metabolism, namely, Jurkat, K562, U937, and HL60 cells are suspension cultures of oncohematologic origin, and HEK293 is a conditionally normal line transformed by adenovirus and often used as control cells along with fibroblasts. The normal fibroblast line (Wi-38) utilized in the experiment was diploid and was obtained from the lung tissue of an aborted fetus. The total cytotoxic activity of 16 compounds was studied using flow cytometry.
(§2) Human cancer cell lines, including Jurkat, K562, U937, HL60, and fibroblasts (Wi-38), were obtained from the European Authentic Cell Culture Collection and further cultured according to established standard protocols using sterile methods. The cells were cultivated in RPMI 1640 (for Jurkat and K562) and DMEM (for Wi-38 and HEK293) media (Gibco, Billings, MT, USA), with the addition of […] glutamine, 10% FBS (Sigma, Kanagawa, Japan), and 100 U/mL penicillin–streptomycin (Sigma). All cell types were cultivated in a humidified atmosphere containing 5% CO₂ at a temperature of 37 °C. Subculturing was performed at two- to three-day intervals. The cells were subsequently seeded into 24-well plates at a density of 5 × 10^4 cells per well and incubated overnight. Subsequent subculturing was then performed at two-day intervals, with a seeding density of 1 × 10^5 cells per 24-well plate, using RPMI medium with 10% FBS [49].
(§3) The dissolution of the compounds tested was initially performed in dimethyl sulfoxide (DMSO) with an initial solution of 100 mM in 10% DMSO. Subsequently, the solution was diluted in a complete culture medium, namely, Dulbecco’s medium, modified Eagle’s medium (DMEM), or Roswell Park Memorial Institute medium (RPMI). Substances were added at concentrations of 10, 1, 100, 10, 1, and 0.1 μM on the day after seeding and incubated for 24 h. Following this, the cells were washed with a phosphate-buffered saline (PBS) solution and stained with 7AAD dye, as per the manufacturer’s protocol for flow cytometry. The CC50 value, which characterizes the parameters of toxicity (i.e., the concentration of the compound required for 50% inhibition of cell viability in vitro), was calculated. logC versus % inhibition was plotted, and statistical data processing was performed using Excel and GraphPad Prism v.8.0.2 (San Diego, CA, USA, 2019). The data obtained from three independent experiments were expressed as the mean of three measurements for each concentration, with the standard deviation indicated as well. These values were then relative to the control values (0.1% DMSO), which were taken as 100%.
(§4) 7-AAD (7-aminoactinomycin D) dye (eBioscience™, San Diego, CA, USA) was used to assess cell viability. Following incubation with the test compounds, the cells were harvested, washed with a phosphate–salt buffer (PBS), and subjected to centrifugation at 400× g for five minutes. The cell sediment was resuspended in 200 μL of staining buffer for flow cytometry (PBS without calcium and magnesium, 2.5% FBS) and stained with a 1 mM 7-AAD dye solution for 15 min in the dark at room temperature. Subsequently, all samples, including experimental and control groups, were analyzed using a BD FACSAria™ III Cell Sorter flow cytometer (Milpitas, CA, USA).
(A flow cytometer gives signals particle by particle.)

In data set [2] the test system is U937. The data set is described as follows: In vitro cytotoxic activity, 7-AAD flow cytometry, U937. Format: cell-based, Human. The note with it: Homo sapiens, U-937, 24 h, 24 h incubation, mean ± SD, triplicate.
Description: as §1, §2, §3, §4

For data set [3], the system named is K562. In words: In vitro cytotoxic activity, 7-AAD flow cytometry, K562. Format: cell-based, Human. To be noted: 24 h incubation, mean ± SD, triplicate.
Description: as §1, §2, §3, §4

Data set [4] relates to Jurkat cells. In words: Cytochrome C assay (flow cytometry). The class given is cell-based, Human. The note with it: compound at CC50 concentration, 6 h (Figure 4; method says four hours). From the text: The quantification of cytochrome c release from the mitochondria in apoptotic cells was used to detect the mitochondrial pathway of apoptosis in the cells by flow cytometry. This study employed a direct labeling method that utilized an anti-cytochrome cFITC antibody, an anti-IgG1-FITC isotype control, and optimized fixation, permeabilization, and blocking buffers to detect cytochrome c by flow cytometry (Luminex®, Austin, TX, USA). […] The Jurkat cells were exposed to test substances at concentrations corresponding to their 24-h CC50 in these cells for a period of four hours. Thereafter, analysis by flow cytometry (NovoCyte Flow Cytometry™ Agilent, San Diego, CA, USA) was conducted. The acquired data were processed using NovoExpress® software (version 1.6.2) (ACEA (Agilent, Santa Clara, CA, USA)).
Figure 4 Detection of cytochrome c in Jurkat cells stained with a FlowCellect Cytochrome c Kit. The control compound, carbonyl cyanide m-chlorophenylhydrazone (CCCP), was administered at a concentration equal to its CC50 value. Compound 9d was added to the sample cells at a CC50 concentration (see the table of cell viability). The cells were incubated for 6 h. We compared the numerical values to determine the reliability of the differences observed between the control sample and the samples treated with the synthesized substances. […]

The nature of data set [5]: In vitro cytotoxic activity, 7-AAD flow cytometry, Hek293. Format: cell-based. To be noted: human, HEK293 cells, conditionally normal line, 24 h incubation, mean ± SD.
Description: as §1, §2, §3, §4

A short description of data set [6]: In vitro cytotoxic activity, 7-AAD flow cytometry, normal fibroblasts. The class given is cell-based. The note with it: human, Wi-38 normal lung fibroblasts, normal fibroblasts Wi-38, 24 h incubation, mean ± SD, read-out: Fibrobl. (CC50).
Description: as §1, §2, §3, §4

Data set [7] deals with Jurkat cells. In words: Mitodamage assay (MitoSense Red, Annexin V-CF488A, 7-AAD). The class given is cell-based, Human. To be noted: compound at CC50 concentration, four hours. As to the method:
To this end, MitoSense Red, a fluorescent dye that accumulates predominantly in mitochondria and responds to changes in membrane potential, was utilized. […] Two dyes commonly employed for detecting apoptosis in cells are annexin V and 7AAD. […] Therefore, the dissipation of mitochondrial membrane potential and the associated apoptosis process in Jurkat tumor cells were analyzed in response to exposure to synthesized macrodiolides. MitoSense Red, Annexin V-CF488A, and 7-AAD were used as dyes for this analysis (see Figure 3). A flow cytometry kit (FlowCellect™ MitoDamage Kit from Millipore, Hayward, CA USA) was utilized, as it facilitates a multiparametric evaluation of three markers of cell health. These markers include changes in mitochondrial potential (early apoptosis and cell stress), phosphatidylserine expression on the cell surface (late apoptosis), and membrane permeability (cell death). The method of the simultaneous detection of mitochondrial damage was performed according to the well-known technique.  Figure 3 Detection changes in mitochondrial membrane potential (ΔΨ) and coupled early and late apoptosis in Jurkat cells treated with compounds 9d, 8d, 7d, and 6d. Staurosporine and carbonyl cyanide-m-chlorophenylhydrazone were utilized as control compounds. The addition of all the tested compounds was executed at the CC50 concentration (refer to the provided table for the cytotoxicities of the synthesized compounds). The staining of cells was conducted using MitoSense Red, Annexin V-CF488A, and 7-AAD. The incubation period lasted for a duration of four hours. The presence of three *** (p < 0.001) and two asterisks ** (p < 0.005) indicates the significance of the observed differences between the values obtained in the control sample and the samples treated with the synthesized substances (comparison was performed by one-way ANOVA). All experiments were performed in triplicate.

Data set [8] has as its system Jurkat. In words: In vitro cytotoxic activity, 7-AAD flow cytometry, Jurkat. Format: cell-based, Human. The note with it: 24 h incubation, mean ± SD, triplicate.
Description: as §1, §2, §3, §4

By CC50 is commonly meant the concentration that lowers cell viability or growth by half. In the case of `O=C1CCCCC/C=C\CC/C=C\CCCCCC(=O)OCCCCCC/C=C\CC/C=C\CCCCCCO1` [Compound 9d], the CC50 in data set [1] was 13.5 ± 1.21 nM; in data set [2], 12.2 ± 1.41 nM; in data set [3], 11 ± 1.25 nM; in data set [3] (Homo sapiens, K562, 24 h), 12.1 nM; in data set [8], 12.1 ± 1.77 nM; in data set [8] (Homo sapiens, Jurkat, 24 h) it was 11 nM. For the same compound, the “cells releasing cytochrome c into the cytoplasm (Cytochrome loss %)” value in data set [4] is recorded as 68.22%. The cytotoxic concentration (CC50) at 24 h in data set [5] was 42.6 ± 4.31 nM; in data set [6] it was 64.3 ± 5.81 nM. For the same compound, the “percentage of cells in apoptosis” value in data set [7] (Jurkat, Annexin V-CF488A/7-AAD) is reported as 50.34%. For the same compound, the “Jurkat cells with reduced mitochondrial membrane potential (Δψ dissipation)” value in data set [7] (MitoSense Red) turned out to be 77.42%.
As to `N#CC(C#N)=NNc1cccc(Cl)c1` [CCCP, carbonyl cyanide-m-chlorophenylhydrazone, reference compound], in data set [4], the “cells releasing cytochrome c into the cytoplasm (Cytochrome loss %)” value came to 79.35%.

The record behind these values is paper PMC12155470, “Novel Tetraene Macrodiolides Are Effective Inducers of Mitochondrial Apoptosis in Jurkat Cells” (International Journal of Molecular Sciences, 2025).
